Results taken from ChEMBL document CHEMBL1201862, “PubChem BioAssay data set” (2004).
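Grown in 96-well plates, cells were treated for 48 hours with each compound at five concentrations. Insufficient inhibition: endpoint recorded as highest concentration tested. GI50 marks 50% less growth.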 Activity calls are given as the source filed them. No stated cut-off is given here; in the data, active = GI50 up to about 1.1 µM and inactive = higher.

Legend:
Test in all cases: NCI anticancer screen, dose series, 48 h
[1] = tested on: 786-0
[2] = tested on: A498
[3] = tested on: A549
[4] = tested on: ACHN
[5] = tested on: BT-549
[6] = tested on: CCRF-CEM
[7] = tested on: COLO 205
[8] = tested on: DU-145
[9] = tested on: EKVX
[10] = tested on: HCC 2998
[11] = tested on: HCT-116
[12] = tested on: HCT-15
[13] = tested on: HL-60
[14] = tested on: HOP-62
[15] = tested on: HOP-92
[16] = tested on: HT-29
[17] = tested on: Hs-578T
[18] = tested on: IGROV-1
[19] = tested on: K562
[20] = tested on: KM12
[21] = tested on: LOX IMVI
[22] = tested on: M14
[23] = tested on: MCF7
[24] = tested on: MDA-MB-231
[25] = tested on: MDA-MB-435
[26] = tested on: MDA-N
[27] = tested on: MOLT-4
[28] = tested on: Malme-3M
[29] = tested on: NCI-H226
[30] = tested on: NCI-H23
[31] = tested on: NCI-H460
[32] = tested on: NCI-H522
[33] = tested on: NCI/ADR-RES
[34] = tested on: OVCAR-3
[35] = tested on: OVCAR-4
[36] = tested on: OVCAR-5
[37] = tested on: OVCAR-8
[38] = tested on: PC-3
[39] = tested on: RPMI-8226
[40] = tested on: RXF 393
[41] = tested on: SF-268
[42] = tested on: SF-295
[43] = tested on: SF-539
[44] = tested on: SK-MEL-28
[45] = tested on: SK-MEL-2
[46] = tested on: SK-MEL-5
[47] = tested on: SK-OV-3
[48] = tested on: SN12C
[49] = tested on: SNB-19
[50] = tested on: SNB-75
[51] = tested on: SR
[52] = tested on: SW-620
[53] = tested on: T47D
[54] = tested on: TK-10
[55] = tested on: U-251
[56] = tested on: UACC-257
[57] = tested on: UACC-62
[58] = tested on: UO-31

With `COc1cc(C2c3cc4c(cc3OC3(OC)COC(=O)C23)OCO4)cc(OC)c1OC(C)=O` (stereo not drawn) the GI50 [1] was 1210 nM (inactive), the GI50 [2] was 3270 nM (inactive) and the GI50 [3] was 1540 nM (inactive). For the same molecule, the GI50 [4] was 1320 nM (inactive), the GI50 [5] was 5000 nM (inactive) and the GI50 [6] was 2240 nM (inactive). For the same molecule, the GI50 [7] was 3870 nM (inactive), the GI50 [8] was 2520 nM (inactive) and the GI50 [9] was > 35800 nM (inactive). For the same molecule, the GI50 [10] was 2750 nM (inactive), the GI50 [11] was 785 nM (active) and the GI50 [12] was 798 nM. For the same molecule, the GI50 [13] was 1230 nM (inactive), the GI50 [14] was 800 nM (active) and the GI50 [15] was 51200 nM (inactive). The GI50 [16] was 2470 nM (inactive), the GI50 [17] was 540 nM (active) and the GI50 [18] was 2210 nM (inactive). The GI50 [19] was 1040 nM (active), the GI50 [20] was 881 nM (active) and the GI50 [21] was 656 nM (active). For the same molecule, the GI50 [22] was 1660 nM (inactive), the GI50 [23] was 1070 nM (active) and the GI50 [24] was 2900 nM (inactive). For the same molecule, the GI50 [25] was 331 nM (active), the GI50 [26] was 206 nM (active) and the GI50 [27] was 3960 nM (inactive). For the same molecule, the GI50 [28] was > 100000 nM (inactive), the GI50 [29] was 1130 nM (inactive) and the GI50 [30] was 3270 nM (inactive). For the same molecule, the GI50 [31] was 705 nM (active), the GI50 [32] was 263 nM (active) and the GI50 [33] was 323 nM (active). The GI50 [34] was 1300 nM (inactive), the GI50 [35] was > 57800 nM (inactive) and the GI50 [36] was 4600 nM (inactive). For the same molecule, the GI50 [37] was 2520 nM (inactive), the GI50 [38] was 429 nM (active) and the GI50 [39] was 1810 nM (inactive). For the same molecule, the GI50 [40] was 499 nM (active), the GI50 [41] was 6750 nM (inactive) and the GI50 [42] was 321 nM (active). For the same molecule, the GI50 [43] was 374 nM (active), the GI50 [44] was 2270 nM (inactive) and the GI50 [45] was 1840 nM (inactive). For the same molecule, the GI50 [46] was 726 nM (active), the GI50 [47] was 1660 nM (inactive) and the GI50 [48] was 3930 nM (inactive). For the same molecule, the GI50 [49] was 5940 nM (inactive), the GI50 [50] was 384 nM (active) and the GI50 [51] was 2530 nM (inactive). The GI50 [52] was 552 nM (active), the GI50 [53] was > 100000 nM (inactive) and the GI50 [54] was 19300 nM (inactive). For the same molecule, the GI50 [55] was 2130 nM (inactive), the GI50 [56] was > 39400 nM (inactive) and the GI50 [57] was 4780 nM (inactive). For the same molecule, the GI50 [58] was 6280 nM (inactive).
